Experimental data from ChEMBL document CHEMBL5150075 (J Med Chem, 2022).
The source made the active and inactive calls. The calls are words filed in the database; no cut-off is given here.

What was measured:
DU-145 [1] = test: Antiproliferative activity against human DU-145 cells assessed as inhibition of cell growth incubated for 72 hrs by MTT assay; type: functional, cell-based; conditions: DU-145, 72 h
DU-145 [2] = test: Induction of apoptosis in human DU-145 cells assessed as increase in cleaved PARP level at 0.003 to 0.3 uM incubated for 48 hrs by Western blot analysis; type: functional, cell-based; conditions: dose 0.003-0.3 µM
Bos taurus = species on record: Bos taurus; test: Inhibition of bovine brain tubulin polymerization measured every 30 secs by absorbance based analysis; conditions: dose 1-10 µM, time 30.0 sec, DDE = dose-dependent effect
Tubulin (Homo sapiens) = Tubulin (Homo sapiens) (UniProt P68371+Q9H4B7+P0DPH7+P68366+Q13509+Q71U36+P04350+Q3ZCM7+P07437+P68363+Q9BQE3+Q6PEY2+Q13885+Q9BVA1+Q9BUF5); test: Disruption of microtubule network in human DU-145 cells assessed as reduction in alpha tubulin expression by Western blot analysis; type: cell-based; conditions: dose 0.03-0.3 µM
DU-145 [3] = test: Induction of G2/M phase cell cycle arrest in human DU-145 cells assessed as increase in cyclin B1 expression at 0.03 to 0.3 uM measured after 12 hrs by Western blot analysis; type: functional, cell-based; conditions: dose 0.03-0.3 µM
DU-145 [4] = test: Induction of apoptosis in human DU-145 cells assessed as late apoptotic cells at 0.03 uM incubated for 48 hrs by Annexin V-FITC/PI staining based flow cytometry analysis (reference value: 2.05%); type: functional
DU-145 [5] = test: Induction of apoptosis in human DU-145 cells assessed as early apoptotic cells at 0.1 uM incubated for 48 hrs by Annexin V-FITC/PI staining based flow cytometry analysis (reference value: 1.97%); type: functional
DU-145 [6] = test: Induction of apoptosis in human DU-145 cells assessed as early apoptotic cells at 0.3 uM incubated for 48 hrs by Annexin V-FITC/PI staining based flow cytometry analysis (reference value: 1.97%); type: functional
DU-145 [7] = test: Induction of apoptosis in human DU-145 cells assessed as dead cells at 0.3 uM incubated for 48 hrs by Annexin V-FITC/PI staining based flow cytometry analysis (reference value: 1.05%); type: functional
DU-145 [8] = test: Antiproliferative activity against human DU-145 cells assessed as inhibition of cell growth incubated for 24 hrs by real-time cell analysis; type: functional, cell-based; conditions: DU-145, 24 h
DU-145 [9] = test: Antiproliferative activity against human DU-145 cells assessed as inhibition of cell growth incubated for 48 hrs by real-time cell analysis; type: functional, cell-based; conditions: DU-145, 48 h
DU-145 [10] = test: Antiproliferative activity against human DU-145 cells assessed as inhibition of cell growth incubated for 72 hrs by real-time cell analysis; type: functional, cell-based; conditions: DU-145, 72 h
NCI-H1299 [11] = test: Antiproliferative activity against human NCI-H1299 cells assessed as inhibition of cell growth incubated for 72 hrs by MTT assay; type: functional, cell-based; conditions: NCI-H1299, 72 h
HGC-27 = test: Antiproliferative activity against human HGC-27 cells assessed as inhibition of cell growth incubated for 72 hrs by MTT assay; type: functional, cell-based; conditions: HGC-27, 72 h
HCT-8 = test: Antiproliferative activity against human HCT-8 cells assessed as inhibition of cell growth incubated for 72 hrs by MTT assay; type: functional, cell-based; conditions: HCT-8, 72 h
SW1990 = test: Antiproliferative activity against human SW1990 cells assessed as inhibition of cell growth incubated for 72 hrs by MTT assay; type: functional, cell-based; conditions: SW1990, 72 h
B16-F10 = test: Antiproliferative activity against mouse B16-F10 cells assessed as inhibition of cell growth incubated for 72 hrs by MTT assay; type: functional, cell-based; conditions: B16-F10, 72 h
[12] = Resistance index, ratio of IC50 for antiproliferative activity against paclitaxel-resistant human MCF7R cells to IC50 for antiproliferative activity against human MCF7 cells; type: functional
[13] = Stability in rat liver microsomes assessed as half life incubated in presence of NADPH by LC-MS/MS analysis; type: ADME, Microsome
[14] = Clearance in Kunming mouse at 2 mg/kg, iv by LC-MS/MS analysis; type: ADME, organism-based; conditions: in vivo
[15] = AUC (0 to t) in Kunming mouse at 2 mg/kg, iv by LC-MS/MS analysis; type: ADME, organism-based; design: dose 2 mg/kg, route iv; conditions: in vivo
[16] = Tmax in Kunming mouse at 20 mg/kg, po by LC-MS/MS analysis; type: ADME, organism-based; conditions: in vivo
DU-145 [17] = test: Antitumor activity against human DU-145 cells xenografted in BALB/c nude mouse assessed as tumor growth inhibition at 5 mg/kg, po administered once daily and measured twice a week relative to control; type: functional; conditions: read-out: TGI
DU-145 [18] = test: Antitumor activity against human DU-145 cells xenografted in BALB/c nude mouse assessed as tumor growth inhibition at 10 mg/kg, po administered once daily and measured twice a week relative to control; type: functional; conditions: read-out: TGI
[19] = Toxicity in BALB/c nude mouse xenografted with human DU-145 cells assessed as reduction in body weight at 10 mg/kg, po administered once daily and measured twice a week; type: organism-based; design: scale not given: the % may be the effect or the level left; conditions: in vivo
NCI-H1299 [20] = test: Antitumor activity against human NCI-H1299 cells xenografted in BALB/c nude mouse assessed as suppression of tumor growth at 20 mg/kg, po administered once daily and measured twice a week relative to control; type: functional
[21] = Toxicity in BALB/c nude mouse xenografted with human NCI-H1299 cells assessed as reduction in body weight at 10 to 20 mg/kg, po administered once daily and measured twice a week; type: organism-based; conditions: in vivo, dose 10-20 mg/kg
[22] = Toxicity in C57BL/6 mouse implanted with mouse B16-F10 cells assessed as […] at 20 mg/kg, po administered once daily and measured twice a week for 14 days; type: organism-based; conditions: in vivo, 336 h, time 14 day
[23] = Mutagenicity in Salmonella typhimurium TA-100 at 0.5 to 500 ug per plate incubated for 72 hrs in presence or absence of S9 fraction by Ames test; type: toxicity, Salmonella enterica subsp. enterica serovar Typhimurium; conditions: in vivo, dose 0.5-500 µg
[24] = molecular target: Sodium channel protein type 5 subunit alpha (Homo sapiens, UniProt Q14524); test: Inhibition of human Nav1.5 expressed in CHO cells by manual patch clamp method; type: toxicity, cell-based
Sequence of Sodium channel protein type 5 subunit alpha (Q14524 whole entry): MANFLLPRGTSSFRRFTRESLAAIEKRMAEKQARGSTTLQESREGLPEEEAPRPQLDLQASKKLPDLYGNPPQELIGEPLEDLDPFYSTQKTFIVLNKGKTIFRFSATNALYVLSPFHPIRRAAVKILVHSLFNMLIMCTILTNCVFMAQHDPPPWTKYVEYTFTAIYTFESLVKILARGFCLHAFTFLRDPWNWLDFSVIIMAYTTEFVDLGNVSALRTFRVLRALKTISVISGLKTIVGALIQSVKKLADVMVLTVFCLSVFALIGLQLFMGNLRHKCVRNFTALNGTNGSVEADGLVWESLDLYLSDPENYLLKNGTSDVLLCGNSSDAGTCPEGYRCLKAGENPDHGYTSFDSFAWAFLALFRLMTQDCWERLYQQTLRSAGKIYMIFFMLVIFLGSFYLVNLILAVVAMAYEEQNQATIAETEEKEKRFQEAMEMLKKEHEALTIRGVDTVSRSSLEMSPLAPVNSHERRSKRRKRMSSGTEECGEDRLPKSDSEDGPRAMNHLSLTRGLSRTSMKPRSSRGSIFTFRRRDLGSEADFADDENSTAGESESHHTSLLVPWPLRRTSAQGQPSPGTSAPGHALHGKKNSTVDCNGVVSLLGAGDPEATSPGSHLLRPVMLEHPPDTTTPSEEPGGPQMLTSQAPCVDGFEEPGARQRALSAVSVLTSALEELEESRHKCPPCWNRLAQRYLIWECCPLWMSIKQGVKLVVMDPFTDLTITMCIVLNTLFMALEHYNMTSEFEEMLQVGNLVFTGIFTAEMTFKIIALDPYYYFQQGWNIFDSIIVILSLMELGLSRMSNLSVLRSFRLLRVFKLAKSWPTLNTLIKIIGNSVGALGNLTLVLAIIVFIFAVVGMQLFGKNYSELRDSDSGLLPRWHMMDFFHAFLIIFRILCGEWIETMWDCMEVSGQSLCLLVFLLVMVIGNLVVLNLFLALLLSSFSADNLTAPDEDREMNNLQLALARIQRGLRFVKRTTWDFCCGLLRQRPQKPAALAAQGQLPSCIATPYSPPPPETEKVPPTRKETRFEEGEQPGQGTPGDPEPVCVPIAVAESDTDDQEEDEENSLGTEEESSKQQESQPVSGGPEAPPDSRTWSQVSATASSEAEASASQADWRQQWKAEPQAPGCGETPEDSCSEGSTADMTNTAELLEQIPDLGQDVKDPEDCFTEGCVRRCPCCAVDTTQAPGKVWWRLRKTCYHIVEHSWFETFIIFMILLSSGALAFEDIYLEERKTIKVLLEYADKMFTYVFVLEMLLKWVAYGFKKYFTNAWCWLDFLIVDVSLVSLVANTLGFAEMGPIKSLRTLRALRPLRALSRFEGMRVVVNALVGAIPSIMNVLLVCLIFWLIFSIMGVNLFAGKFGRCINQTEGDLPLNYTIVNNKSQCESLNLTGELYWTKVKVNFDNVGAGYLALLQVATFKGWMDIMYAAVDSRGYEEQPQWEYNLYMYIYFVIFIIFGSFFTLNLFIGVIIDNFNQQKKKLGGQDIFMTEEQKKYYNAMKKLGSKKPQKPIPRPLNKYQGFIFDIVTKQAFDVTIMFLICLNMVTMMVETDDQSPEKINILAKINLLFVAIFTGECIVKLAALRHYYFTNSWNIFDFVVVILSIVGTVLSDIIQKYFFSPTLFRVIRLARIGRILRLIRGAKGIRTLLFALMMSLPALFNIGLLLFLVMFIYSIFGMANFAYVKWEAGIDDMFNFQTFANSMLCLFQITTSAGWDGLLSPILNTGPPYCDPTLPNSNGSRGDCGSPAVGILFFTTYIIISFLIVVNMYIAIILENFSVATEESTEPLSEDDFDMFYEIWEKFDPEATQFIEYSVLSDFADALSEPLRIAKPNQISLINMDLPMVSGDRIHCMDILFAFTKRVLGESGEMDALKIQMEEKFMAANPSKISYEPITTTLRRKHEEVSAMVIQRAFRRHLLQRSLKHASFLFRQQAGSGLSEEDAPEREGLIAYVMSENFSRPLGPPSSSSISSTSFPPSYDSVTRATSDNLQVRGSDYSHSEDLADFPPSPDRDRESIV

[25] = Mutagenicity in Salmonella typhimurium TA-97 at 0.5 to 500 ug per plate incubated for 72 hrs in presence or absence of S9 fraction by Ames test; type: toxicity, Salmonella enterica subsp. enterica serovar Typhimurium; conditions: in vivo, dose 0.5-500 µg
[26] = Mutagenicity in Salmonella typhimurium TA-98 at 0.5 to 500 ug per plate incubated for 72 hrs in presence or absence of S9 fraction by Ames test; type: toxicity, Salmonella enterica subsp. enterica serovar Typhimurium; conditions: in vivo, dose 0.5-500 µg
[27] = Selectivity index, ratio of IC50 for cytotoxicity against African green monkey Vero cells to IC50 for antiproliferative activity against human DU-145 cells; type: toxicity, cell-based; conditions: Vero cells and DU-145 cells, read-out: Ratio IC50
[28] = Toxicity in specific pathogen-free Kunming mouse assessed as pathological changes in colon tissues at 10 mg/kg, po administered once daily and measured after 7 days by hematoxylin and eosin staining based analysis; type: organism-based; conditions: in vivo, 168 h, time 7 day
HepG2 = test: cells; conditions: Homo sapiens, HepG2, 72 h
HCT-116 = test: cells; conditions: Homo sapiens, HCT-116, 72 h
Description: Antiproliferative activity against human HCT-116 cells assessed as inhibition of cell growth incubated for 72 hrs by MTT assay

## Cc1ccc(S(=O)(=O)Nc2cc(C(=O)NCc3ccc(C)nc3)ccc2C)cc1
DU-145 [1]
  IC50: 8 nM
DU-145 [2]
  Activity: Active
Bos taurus
  inhibition: Dde
Tubulin (Homo sapiens)
  Activity: Active
DU-145 [3]
  Activity: Active
DU-145 [4]
  Activity: 9.5%
DU-145 [5]
  Activity: 24.79%
DU-145 [6]
  Activity: 26.3%
DU-145 [7]
  Activity: 5.51%
DU-145 [8]
  IC50: 10 nM
DU-145 [9]
  IC50: 10 nM
DU-145 [10]
  IC50: 9 nM
NCI-H1299 [11]
  IC50: 4 nM
HGC-27
  IC50: 6 nM
HCT-8
  IC50: 22 nM
SW1990
  IC50: 15 nM
B16-F10
  IC50: 2 nM
[12]
  Ratio IC50: 2.48
[13]
  half-life: 2.3 min
[14]
  clearance: 61.5 mL/min/kg
[15]
  AUC(0-t): 534 ng·h/mL
[16]
  Tmax: 4.98 min
DU-145 [17]
  inhibition in vivo at 5 mg/kg: 37.4%
DU-145 [18]
  inhibition in vivo at 10 mg/kg: 62.8%
[19]
  Activity: 3.5%
NCI-H1299 [20]
  Activity: 73.6%
[21]
  Activity: Toxic
[22]
  Activity: Toxic
[23]
  Activity: Non-Toxic
[24]
  IC50: > 30000 nM
[25]
  Activity: Non-Toxic
[26]
  Activity: Non-Toxic
[27]
  selectivity ratio: 4
[28]
  Activity: Non-Toxic
HepG2
  IC50: 3 nM
HCT-116
  IC50: 4 nM
